# From PubChem BioAssay AID2384 (Southern Research Specialized Biocontainment Screening …, 2010)
# pIC50: −log10 of the molar value.
# Test system: S. typhi GFP reporter counter-screen, fluorescence, 4 h
# Assay: inhibitors in S. typhi counter-screen strain, dose response, counter-screen for PhoP regulon inhibitor project, fluorescence, 4 h (AID 2384)
row,Structure (SMILES),pIC50
1,CCc1ccc(Nc2n[n+](-c3ccccc3)c(-c3c(Cl)cccc3Cl)s2)cc1,4.38
2,Cc1ccc(Nc2nc(NCCO)c3ccccc3n2)cc1C,4.47
3,COc1cccc(F)c1C(C[N+](=O)[O-])c1c(N)n(C)c(=O)n(C)c1=O (stereo not drawn),4.05
4,O/N=C/C1=C(Cl)c2ccccc2CC1,4.03
5,Cc1ccc(-c2csc(NC(=O)C[n+]3cc(-c4ccccc4)n4c3CCC4)n2)cc1,4.71
6,O=C(Nc1cccc(Br)c1)c1cc2ccccc2o1,4.08
7,O=C(N/N=C/c1ccc([N+](=O)[O-])o1)c1ccc(O)cc1,4.42
8,CCCCCCCNC(=O)C1(CC2CC(c3ccc(Cl)cc3)=NO2)CCNCC1 (stereo not drawn),4.62
9,CC(C)(C)/C(O)=C/c1nc2cc(Cl)ccc2oc1=O,4.62
10,CN(C)CCCNc1cc(C(C)(C)C)nc2c(-c3ccc(Cl)cc3)cnn12,4.73
11,CCOc1cc(CNC(C)(C)CO)cc(Br)c1OCc1ccc(Cl)cc1Cl,4.43
12,Nc1cccc2nc3ccccc3cc12,4.16
13,OCCCCNCc1ccc(OCc2ccc(Cl)cc2Cl)cc1,4.25
14,Clc1ccc2[nH]c3c(c2c1)CCc1cn[nH]c1-3,3.98
15,O=C(O)c1ccc(N2C(=O)CC(N3C(=O)/C(=C/c4ccc(Cl)cc4)SC3=S)C2=O)cc1 (stereo not drawn),4.63
16,O=C(Nc1nnc(-c2cccs2)o1)c1cccc(F)c1,4.54
17,Cc1ccc(C(C[N+](=O)[O-])Sc2ccc(N)cc2)cc1 (stereo not drawn),4.57
18,Cc1cc(Br)ccc1OCCCCNCCO,4.51
19,C#CCOCCOCCOCCNc1nc(N2CCN(C(=O)CCCCCCCCCCNC(=O)[C@H]([C@@H](C)CC)n3cc(CCCCN=C(N)N)nn3)CC2)nc(N2CCN(C(=O)CCCCCCCCCCNC(=O)[C@H](CO)n3cc(CCCCCN)nn3)CC2)n1,4.45
20,CN1CCC(=C2c3ccccc3C=Cc3ccccc32)CC1,4.11
21,CCCCCC(=O)NC(=S)NNC(=O)CC,4.16
22,C#CCOCCOCCOCCNc1nc(N2CCN(C(=O)CCCCCCCCCCNC(=O)[C@H](CCCCN)n3cc(C[C@@H](C)CC)nn3)CC2)nc(N2CCN(C(=O)CCCCCCCCCCNC(=O)[C@H](CCCN=C(N)N)n3cc(C[C@@H](C)CC)nn3)CC2)n1,3.99

row,Structure (SMILES),pIC50
1,Cn1c(-c2ccc3c(c2)OCO3)cnc1NCc1ccc(Cl)cc1,4.12
2,CNCCCC1c2ccccc2C=Cc2ccccc21,4.17
3,O=C(C[n+]1ccccc1)c1ccc(-c2ccccc2)cc1,3.91
4,Fc1ccc(Nc2ccnc(Nc3ccc(F)cc3)n2)cc1,4.61
5,O=C(C[n+]1cc(-c2ccc(Cl)c(Cl)c2)n2c1CCC2)N1c2ccccc2Sc2ccccc21,4.71
6,CC(C)N1CSC(=S)N(Cc2ccccc2)C1,4.31
7,CN(Cc1ccccc1)CC(O)COc1ccc(CNCCCOc2cccnc2)cc1 (stereo not drawn),4.27
8,NCCCC[C@H]1CN=C(N)N1CCC12CC3CC(CC(C3)C1)C2,4.06
9,O=C(C[n+]1cc(Br)cc2ccccc21)c1ccc(Cl)cc1,4.49
10,CC(=O)Nc1ccc(S(=O)(=O)NNc2cccc(C)c2)cc1,4.56
11,O=[N+]([O-])c1cccc2c(N3CCCC3)ccnc12,4.48
12,Cc1[nH]cnc1C(=O)N/N=C/c1ccc([N+](=O)[O-])s1,4.43
13,O=C1c2ccccc2NC(c2ccc(-c3ccc(Br)cc3)o2)N1O (stereo not drawn),4.59
14,COc1ccc2sc(N(CCCN(C)C)C(=O)c3ccc(S(=O)(=O)N4CCc5ccccc5C4)cc3)nc2c1,3.91
15,C#CCOCCOCCOCCNc1nc(N2CCN(C(=O)CCCCCCCCCCNC(=O)[C@@H](CCSC)n3cc(CCO)nn3)CC2)nc(N2CCN(C(=O)CCCCCCCCCCNC(=O)[C@H]([C@@H](C)CC)n3cc(CCCCN=C(N)N)nn3)CC2)n1,4.08
16,CC1(C)CC(N2CCN(C(c3ccccc3)c3ccccc3)CC2)=CC(=[N+]2CCCCC2)C1,4.20
17,O=C1C(=O)c2ccccc2-c2ccccc21,4.71
18,C#CCOCCOCCOCCNc1nc(N2CCN(C(=O)CCCCCCCCCCNC(=O)[C@H](CCCCN)n3cc(C)nn3)CC2)nc(N2CCN(C(=O)CCCCCCCCCCNC(=O)[C@H](CCCN=C(N)N)n3cc(C[C@@H](C)CC)nn3)CC2)n1,4.68
19,CCc1ccc2c(c1)C1(NN=C(c3ccc(C)cc3)S1)C(=O)N2 (stereo not drawn),4.41
20,O=C1CN(/N=C/c2ccc([N+](=O)[O-])o2)C(=O)N1,4.38
21,C=CCNc1ncnc2c1[nH]c1ccc(Cl)cc12,4.43
22,Clc1ccc(OCCCNCc2ccccc2)c2ccccc12,4.74

row,Structure (SMILES),pIC50
1,Oc1c(Br)cc(Br)cc1C=NCc1ccc(F)cc1,4.34
2,CCCCCCCCC1=NCCc2c1[nH]c1ccccc21,4.11
3,Cc1nn(-c2cc(N3CCNCC3)ccc2[N+](=O)[O-])c(=O)c2ccccc12,3.85
4,Oc1c(CN2CCOCC2)cc(COCc2ccccc2)c2cccnc12,4.44
5,O=C1C=CC(=O)N1CCCCCCN1C(=O)C=CC1=O,4.10
6,Cc1ccc(C(=O)N/N=C\c2ccc([N+](=O)[O-])s2)cn1,4.70
7,CCc1ccc(CNCc2ccc(OCC(O)CN(C)Cc3ccccc3)cc2)nc1 (stereo not drawn),4.17
8,CCCOc1ccc(C(=O)NNC(=S)NC(=O)c2ccco2)cc1,4.43
9,Oc1cccc2ccc(Nc3ccccn3)nc12,5.13
10,Nc1nc2ccccc2n1CCOc1ccccc1Cl,4.39
11,Cc1ccccc1S(=O)(=O)NNC(=O)C(=O)NNc1ccccn1,4.44
12,Oc1ccc(CN2CCN(c3ccccc3)CC2)c2cccnc12,4.00
13,CCCCCCC[N+](CC)(CC)CCCCc1ccc(Cl)cc1,4.43
14,CC1=NN(c2nc3ccccc3[nH]2)C(=O)C1Cc1ccccc1 (stereo not drawn),4.47
15,O=[N+]([O-])c1cc(CN2CCN(c3cccc(C(F)(F)F)c3)CC2)c2cccnc2c1O,4.64
16,CCCCCCCCCCC[N+](C)(C)CC/C=C1/c2ccccc2Sc2ccc(Cl)cc21,4.27
17,Cc1ccc2c(c1)sc(-c1ccc(N(C)C)cc1)[n+]2C,4.45
18,CN1C(=O)N2CN(C3CCCCC3)CN3C(=O)N(C)C1C23 (stereo not drawn),3.96
19,CCn1cc(C(=O)NCCN(C)C)c(=O)c2cc(F)c(N3CCN(C)CC3)cc21,4.28
20,CCc1cccc2c(C(=O)COC(=O)c3ccc([N+](=O)[O-])s3)c[nH]c12,4.73
21,Cc1c2ccncc2c(C)c2c1[nH]c1ccccc12,4.67
22,O=C(Cc1ccccc1)N/N=C/c1cc(Br)cc(Cl)c1O,4.58

row,Structure (SMILES),pIC50
1,CN(C)CC/C=C1\c2ccc(F)cc2Sc2cc(F)c(Cl)cc21,4.71
2,O=c1c2ccccc2nc(N/N=C/c2c(O)ccc3ccccc23)n1O,4.79
3,CC(Oc1ccc(Br)cc1)c1nc2c3ccccc3nc(=S)n2[nH]1 (stereo not drawn),3.86
4,O=C(Cn1nc(CNc2ccc(Cl)cc2)[n+]2c1CCCCC2)c1ccc(Br)cc1,4.24
5,N/C(=N\OS(=O)(=O)c1ccc(Cl)cc1)c1cccnc1,4.91
6,CCCCCCCCCCOC(=O)C[N+](C)(C)CC1CCCCC1O (stereo not drawn),4.42
7,CN1CCC(OC(=O)c2ccc(Br)cc2)CC1,4.74
8,Clc1ccc(CN2CCc3c([nH]c4ccccc34)C2)cc1Cl,4.44
9,Cc1ccccc1Nc1cc(C)c2c(O)cccc2n1,4.66
10,CCn1nnc(NC(=O)c2ccc([N+](=O)[O-])o2)n1,4.10
11,CN(C)CC/C=C1/c2ccccc2Sc2ccc(Cl)cc21,4.52
12,Cc1cc(C)c2sc(N(CCCN(C)C)C(=O)COc3ccc(Cl)cc3)nc2c1,4.46
13,Cc1ccc(C(=O)Sc2cccccc2=O)cc1,5.20
14,CCN1CCN(C(=O)c2cc3cc(F)ccc3[nH]2)CC1,4.74
15,Clc1ccc(OCCCN2CCCC2)cc1Cl,4.55
16,Cc1ccc(C)c(Nc2cc(C)nc3ccccc23)c1,4.26
17,C#CCOCCOCCOCCNc1nc(N2CCN(C(=O)CCCCCCCCCCNC(=O)Cn3cc(CCCCCN)nn3)CC2)nc(N2CCN(C(=O)CCCCCCCCCCNC(=O)[C@H]([C@@H](C)CC)n3cc(CCCCCN)nn3)CC2)n1,4.41
18,O=C(CN1CCCC1)Nc1ccc(-c2nc3cc(NC(=O)CN4CCCC4)ccc3o2)cc1,4.24
19,CCOC(=O)c1c(-c2ccc(-c3ccccc3)cc2)csc1NC(=O)CNCCN(C)C,4.08
20,C#CCOCCOCCOCCNc1nc(N2CCN(C(=O)[C@H]([C@@H](C)CC)n3cc([C@@H](N)Cc4ccc(O)cc4)nn3)CC2)nc(N2CCN(C(=O)[C@H](Cc3cc4ccccc4[nH]3)n3cc([C@@H](N)CC(C)C)nn3)CC2)n1,4.57
21,CCCCCCCCCCOC(=O)Cn1c(COc2ccccc2OC)[n+](C)c2ccccc21,4.70
22,Cc1cccc(Nc2cc(C)c3c(O)cccc3n2)c1C,4.47

row,Structure (SMILES),pIC50
1,CC(C)(C)c1ccc(NC(=O)COC(=O)c2ccc([N+](=O)[O-])s2)cc1,4.82
2,CCCCCc1ccc(OCCC[n+]2ccccc2)c(CCCCC)c1,4.48
3,Cc1ccc(O)c(Nc2c3ccccc3nc3ccccc23)c1,4.30
4,CO[C@H]1C=CO[C@@]2(C)Oc3c(C)c(O)c4c(O)c(c5c(c4c3C2=O)NC2(CCN(CC(C)C)CC2)N=5)=NC(=O)C(C)=CC=C[C@H](C)[C@H](O)[C@@H](C)[C@@H](O)[C@@H](C)[C@H](OC(C)=O)[C@@H]1C,5.66
5,O=C(C[n+]1cc(-c2ccc(Cl)cc2)n2c1CCC2)Nc1nc(-c2ccccc2)cs1,4.70
6,OC(CNCCc1ccc(Cl)cc1Cl)COc1ccccc1 (stereo not drawn),4.43
7,O=C(N/N=C/c1ccccn1)c1cccs1,4.18
8,O[C@@H](c1cc(C(F)(F)F)nc2c(C(F)(F)F)cccc12)[C@H]1CCCCN1,4.42
9,O=C(Nc1csc(Cl)c1)c1ccccc1,4.15
10,Cc1cc(CSC(=N)N)c(CSC(=N)N)cc1C,4.30
11,CN1CCN(C2Cc3cc(Cl)ccc3Sc3cc(F)ccc32)CC1 (stereo not drawn),4.65
12,O=C1CSC(=S)N1c1cccnc1,4.10
13,C#CCOCCOCCOCCNc1nc(N2CCN(C(=O)[C@H](CCCCN)n3cc([C@@H](N)CO)nn3)CC2)nc(N2CCN(C(=O)[C@H](Cc3cc4ccccc4[nH]3)n3cc([C@@H](N)Cc4ccc(O)cc4)nn3)CC2)n1,4.03
14,CN(O)/C=c1/ccc2c(n1)C(=O)C=CC=2,4.71
15,N=c1n(Cc2ccc(Cl)cc2)c2ccccc2n1CC(O)COc1ccccc1 (stereo not drawn),4.44
16,CCOc1ccc(Nc2c3ccccc3nc3ccccc23)cc1,4.71
17,CCOC(=O)N/N=C(/C)c1ccc([N+](=O)[O-])o1,4.13
18,NC(=O)SCC(=O)Nc1ccc(Cl)cc1,4.33
19,O=c1cc(-c2ccccc2)cc(-c2ccccc2)n1O,4.49
20,CCOC(=O)C1=C(O)c2ccccc2C(=O)/C1=C\c1ccc(C)cc1,3.86
